For 4 compounds, per cent surviving, IC50 and solubility results are on record in patent US3957764A, “6-Aminopenicillanic acid derivatives” (priority 1969, dated 1976).

Data set [1] concerns Escherichia Coli HA2. Put plainly: In vivo experiment: survival of mice infected with Escherichia Coli HA2 (Table C). The settings on record: 10 mice. On the procedure: The great difference between the spectrum of the hereinbefore mentioned FL 1060 and those of G-penicillin and ampicillin indicates a difference in the mode of action. This is also supported by in vivo experiments, in which mice (weight 27 to 30 g) were infected with 0.5 ml of a 24 hour old NIH bouillon culture of Escherichia Coli HA2 1000 times diluted in gastric mucin (5%) (Orthana). After half an hour and again after 61/2 hours a single dose was given subcutaneously in 0.5 ml. of a 0.9 per cent sodium chloride solution. After 24 hours the numbers of surviving mice were registered.
All surviving mice were still alive after 4 days, when observation of them was terminated.

Data set [2] deals with Pseudomonas aeruginosa. Put plainly: Antibacterial spectrum (Table A), 50% inhibition. Type of data set: cell-based. The source says:
(§1) This effect is quite unexpected, since of the hitherto known derivatives of 6-aminopenicillanic acid only those being substituted with an acyl group at the 6-amino group have shown an antibacterial effect. The effect on penicillin-sensitive, gram-positive bacteria is less than that of benzylpenicillin and of α-aminobenzylpenicillin, whereas the effect on gram-negative bacilli, e.g. coli and salmonella species, is on a many times higher level than that of e.g. benzylpenicillin and α-aminobenzylpenicillin. […] IC50 means the concentration required for 50% inhibition.

Data set [3] has as its system Staph. aureus, penicillin sensitive. Kind of data set: Antibacterial spectrum (Table A), 50% inhibition. Type of data set: cell-based. The conditions noted are these: Staphylococcus aureus.
From the text: as §1

Data set [4] has as its system Streptococcus faecalis E13. Put plainly: Antibacterial spectrum (Table A), 50% inhibition. Type of data set: cell-based. The conditions noted are these: Enterococcus faecalis.
From the text: as §1

Data set [5] relates to Salmonella hirschfeldii. Put plainly: Antibacterial spectrum (Table A), 50% inhibition. It is filed as cell-based.
From the text: as §1

For data set [6], the system named is Proteus, average of 8 strains. Kind of data set: Antibacterial spectrum (Table A), 50% inhibition. Type of data set: cell-based.
From the text: as §1

For data set [7], the system named is Streptococcus pyogenes. Kind of data set: Antibacterial spectrum (Table A), 50% inhibition. It is filed as cell-based.
From the text: as §1

Data set [8] deals with Bacillus megatherium KD. Kind of data set: Antibacterial spectrum (Table A), 50% inhibition. Type of data set: cell-based.
From the text: as §1

Data set [9] has as its system Salmonella enteritidis. Kind of data set: Antibacterial spectrum (Table A), 50% inhibition. It is filed as cell-based. The conditions noted are these: Salmonella enterica.
From the text: as §1

Data set [10] relates to Listeria Monocytogenes FT. Kind of data set: Antibacterial spectrum (Table A), 50% inhibition. It is filed as cell-based.
From the text: as §1

For data set [11], the system named is Salmonella typhosa. Put plainly: Antibacterial spectrum (Table A), 50% inhibition. It is filed as cell-based. The conditions noted are these: Salmonella enterica.
From the text: as §1

Data set [12] has as its system Staph. aureus, penicillinase producing. Kind of data set: Antibacterial spectrum (Table A), 50% inhibition. Type of data set: cell-based. The settings on record: Staphylococcus aureus.
From the text: as §1

The test system of data set [13] is Bacillus subtilis KA2. Kind of data set: Antibacterial spectrum (Table A), 50% inhibition. It is filed as cell-based.
From the text: as §1

The test system of data set [14] is Shigella dysenteriae. Kind of data set: Antibacterial spectrum (Table A), 50% inhibition. It is filed as cell-based.
From the text: as §1

Data set [15] has as its system Salmonella abortivoequina. Kind of data set: Antibacterial spectrum (Table A), 50% inhibition. It is filed as cell-based.
From the text: as §1

Data set [16] has as its system Vibrio comma. Kind of data set: Antibacterial spectrum (Table A), 50% inhibition. It is filed as cell-based. The settings on record: Vibrio cholerae.
From the text: as §1

Data set [17] relates to Salmonella paratyphi A. Put plainly: Antibacterial spectrum (Table A), 50% inhibition. Type of data set: cell-based. The settings on record: Salmonella enterica.
From the text: as §1

The subject of data set [18] is Salmonella typhimurium. Put plainly: Antibacterial spectrum (Table A), 50% inhibition. Type of data set: cell-based. The conditions noted are these: Salmonella enterica.
From the text: as §1

The subject of data set [19] is Erysipelothrix insidiosa FU. Kind of data set: Antibacterial spectrum (Table A), 50% inhibition. Type of data set: cell-based. The settings on record: Erysipelothrix rhusiopathiae.
From the text: as §1

In data set [20] the test system is Klebsiella pneumoniae, average of 12 strains. Put plainly: Antibacterial spectrum (Table A), 50% inhibition. Type of data set: cell-based.
From the text: as §1

Data set [21] concerns Corynebacterium xerosis FF. Kind of data set: Antibacterial spectrum (Table A), 50% inhibition. It is filed as cell-based.
From the text: as §1

The subject of data set [22] is Alcaligenes faecalis. Put plainly: Antibacterial spectrum (Table A), 50% inhibition. It is filed as cell-based.
From the text: as §1

The test system of data set [23] is Salmonella chlerasuis. Put plainly: Antibacterial spectrum (Table A), 50% inhibition. It is filed as cell-based.
From the text: as §1

Data set [24] has as its system Diplococcus pneumoniae EA. Put plainly: Antibacterial spectrum (Table A), 50% inhibition. The conditions noted are these: Streptococcus pneumoniae. Type of data set: cell-based.
From the text: as §1

The test system of data set [25] is Shigella flexneri. Kind of data set: Antibacterial spectrum (Table A), 50% inhibition. Type of data set: cell-based.
From the text: as §1

Data set [26] concerns Escherichia coli, average of 36 strains. Put plainly: Antibacterial spectrum (Table A), 50% inhibition. Type of data set: cell-based.
From the text: as §1

Data set [27] deals with Salmonella schottmuelleri. Kind of data set: Antibacterial spectrum (Table A), 50% inhibition. Type of data set: cell-based.
From the text: as §1

In data set [28] the test system is Escherichia coli HA2 Leo strain. Put plainly: Antibacterial activity (Tables A and B), 50% inhibition. Type of data set: cell-based. The settings on record: HA2LEOSTRAIN, Table A.
From the text: as §1
In Table B below the activity of a number of the compounds of the invention against the Escherichia coli HA2 Leo strain of Table A is shown:
The compounds of Table B were obtained by enzymatic hydrolysis of the corresponding esters described in the Examples mentioned by treatment with a 20 per cent mouse serum at 37°C in 90 minutes.

Data set [29] is described as follows: Solubility in water. It is filed as physicochemical.
Where [30] appears, read: Streptococcus faecalis E13, read-out: IC50.
Where [31] appears, read: Proteus, average of 8 strains, read-out: IC50.
Where [32] appears, read: Salmonella enteritidis, read-out: IC50.
The mark [33] stands for this setting: Listeria Monocytogenes FT, read-out: IC50.
Setting [34] is: Salmonella abortivoequina, read-out: IC50.
The mark [35] stands for this setting: Salmonella typhimurium, read-out: IC50.
The mark [36] stands for this setting: average of 12 strains, read-out: IC50.
Where [37] appears, read: Salmonella chlerasuis, read-out: IC50.
Where [38] appears, read: Diplococcus pneumoniae EA, read-out: IC50.

Values after ≈ are worked out from the molar mass of the structure shown. Like-named read-outs stand apart in the source and are kept apart here.

As usually defined, the IC50 is the concentration that inhibits the measured activity by half. On to `CC1(C)S[C@@H]2[C@H](/N=C/N3CCCCCC3)C(=O)N2[C@H]1C(=O)O` [FL 1060, 6-[(hexahydro-1H-azepin-1-yl)-methyleneamino]-penicillanic acid, hydrochloric, dihydrate], for which the per cent surviving in data set [1] (single dose 7.5 μg s.c., given twice, 24 hours) was determined as 0 per cent; in data set [1] (single dose 15 μg s.c., given twice, 24 hours), 0 per cent; in data set [1] (single dose 30 μg s.c., after half an hour and again after 6 1/2 hours, 24 hours (survivors alive after 4 days)) it was 50 per cent. The half-inhibitory concentration (IC50) is more than 100 µg/mL in data set [2] (read-out: IC50); 5 µg/mL in data set [3]; more than 100 µg/mL in data set [4] (setting [30]); 0.016 µg/mL in [5]; 0.23 µg/mL in [6] (setting [31]); 0.5 µg/mL in data set [7] (read-out: IC50). The IC50 in data set [8] (Bacillus megatherium KD, read-out: IC50) is 0.5 µg/mL; in data set [9] (setting [32]), 0.16 µg/mL; in data set [10] (setting [33]), 50 µg/mL; in [11] it was 0.079 µg/mL; in data set [12], more than 100 µg/mL; in data set [13] (read-out: IC50) it was 5 µg/mL. Further, the half-inhibitory concentration (IC50) was found to be 0.16 µg/mL in [14]; 0.04 µg/mL in data set [15] (setting [34]); 0.4 µg/mL in data set [16]; 0.13 µg/mL in [17]; 0.063 µg/mL in data set [18] (setting [35]); 20 µg/mL in data set [19]. The IC50 in data set [20] (setting [36]) came out at 0.65 µg/mL; in data set [21] (Corynebacterium xerosis FF, read-out: IC50) it was 1.6 µg/mL; in data set [22] it was 0.63 µg/mL; in data set [23] (setting [37]) it was 0.16 µg/mL; in data set [24] (setting [38]), 3.2 µg/mL; in data set [25], 0.05 µg/mL. For the same compound, the concentration for half-maximal inhibition (IC50) in data set [26] was determined as 0.089 µg/mL; in [27], 0.063 µg/mL; in data set [28] it was 0.016 µg/mL.
For the compound `CC1(C)S[C@@H]2[C@H](NC(=O)[C@H](N)c3ccccc3)C(=O)N2[C@H]1C(=O)O` [Ampicillin, α-aminobenzylpenicillin], the per cent surviving in data set [1] (single dose 75 μg s.c., given twice, 24 hours) is 0 per cent; in data set [1] (single dose 150 μg s.c., given twice, 24 hours) it was 0 per cent; in [1] (single dose 300 μg s.c., given twice, 24 hours (survivors alive after 4 days)) it was 70 per cent. The IC50 was more than 100 µg/mL in data set [2] (read-out: IC50); 0.025 µg/mL (≈ 0.0715 µM) in data set [3]; 0.79 µg/mL (≈ 2.26 µM) in data set [4] (setting [30]); 0.079 µg/mL (≈ 0.226 µM) in data set [5]; 1.3 µg/mL (≈ 3.72 µM) in data set [6] (setting [31]); 0.013 µg/mL (≈ 0.0372 µM) in [7] (read-out: IC50). Besides, the IC50 in [9] (setting [32]) is 0.4 µg/mL (≈ 1.14 µM); in [10] (setting [33]), 0.1 µg/mL (≈ 0.286 µM); in data set [11], 0.32 µg/mL (≈ 0.916 µM); in data set [12] it was 130 µg/mL (≈ 372 µM); in data set [13] (read-out: IC50), 0.025 µg/mL (≈ 0.0715 µM); in data set [14], 0.63 µg/mL (≈ 1.8 µM). In addition, the IC50 worked out at 0.25 µg/mL (≈ 0.715 µM) in data set [15] (setting [34]); 0.4 µg/mL (≈ 1.14 µM) in data set [16]; 0.4 µg/mL (≈ 1.14 µM) in data set [17]; 0.5 µg/mL (≈ 1.43 µM) in data set [18] (setting [35]); 0.04 µg/mL (≈ 0.114 µM) in data set [19]; 26 µg/mL (≈ 74.4 µM) in [20] (setting [36]). Moreover, the IC50 in [22] came out at 0.5 µg/mL (≈ 1.43 µM); in data set [23] (setting [37]) it was 0.32 µg/mL (≈ 0.916 µM); in data set [24] (setting [38]), 0.01 µg/mL (≈ 0.0286 µM); in [25], 0.79 µg/mL (≈ 2.26 µM); in [26], 2.2 µg/mL (≈ 6.3 µM); in data set [27] it was 0.63 µg/mL (≈ 1.8 µM). 2 µg/mL (≈ 5.72 µM) corresponded to half-maximal inhibition in data set [28] (IC50).
Consider `CC1(C)S[C@@H]2[C@H](NC(=O)Cc3ccccc3)C(=O)N2[C@H]1C(=O)O` [G-Pen., benzylpenicillin], for which the IC50 was more than 100 µg/mL in [2]; 0.016 µg/mL (≈ 0.0478 µM) in data set [3]; 3.2 µg/mL (≈ 9.57 µM) in data set [4] (E13); 0.13 µg/mL (≈ 0.389 µM) in data set [5]; 5.4 µg/mL (≈ 16.1 µM) in [6]; 0.008 µg/mL (≈ 0.0239 µM) in data set [7]. The IC50 worked out at 0.016 µg/mL (≈ 0.0478 µM) in [8] (Bacillus); 2.5 µg/mL (≈ 7.48 µM) in data set [9] (ENTERITIDIS); 0.1 µg/mL (≈ 0.299 µM) in data set [10] (Listeria monocytogenes); 2 µg/mL (≈ 5.98 µM) in data set [11]; 100 µg/mL (≈ 299 µM) in data set [12]; 0.01 µg/mL (≈ 0.0299 µM) in [13]. Besides, the IC50 in data set [14] was determined as 5 µg/mL (≈ 15 µM); in [15] (Salmonella), 2.5 µg/mL (≈ 7.48 µM); in data set [16], 0.79 µg/mL (≈ 2.36 µM); in data set [17], 3.2 µg/mL (≈ 9.57 µM); in [18] (TYPHIMURIUM), 2.5 µg/mL (≈ 7.48 µM); in data set [19], 0.025 µg/mL (≈ 0.0748 µM). Further, the IC50 in data set [20] was determined as 29 µg/mL (≈ 86.7 µM); in data set [21] (Corynebacterium xerosis), 0.013 µg/mL (≈ 0.0389 µM); in data set [22], 1.6 µg/mL (≈ 4.78 µM); in data set [23] (Salmonella), 1.6 µg/mL (≈ 4.78 µM); in [24] it was 0.01 µg/mL (≈ 0.0299 µM); in [25], 10 µg/mL (≈ 29.9 µM). The half-inhibitory concentration (IC50) in data set [26] amounted to 32 µg/mL (≈ 95.7 µM); in [27], 3.2 µg/mL (≈ 9.57 µM); in [28], 32 µg/mL (≈ 95.7 µM).
Turning to `CC1(C)S[C@@H]2[C@H](N=CN3CCCCCC3)C(=O)N2[C@H]1C(=O)O` [Example 6, 6-[(Hexahydro-1H-azepin-1-yl)-methyleneamino]-penicillanic acid], the solubility entry in data set [29] is recorded as “soluble in water”.
